Where a SMILES comes first, the peptide text is derived from it. [ ]: non-standard residue; d: D form. The star is where a group is joined. X1 = O=C(CCC[P+](c1ccccc1)(c1ccccc1)c1ccccc1)*; d(pY) = N[C@H](Cc1ccc(OP(=O)(O)O)cc1)C(=O)O; pY = N[C@@H](Cc1ccc(OP(=O)(O)O)cc1)C(=O)O; NBD = O=[N+]([O-])c1ccc(*)c2nonc12; Cbz = O=C(OCc1ccccc1)*; βAla = NCCC(=O)O; CH2F = FC*
Legend:
ALP = ALP catalyzed dephosphorylation of the precursors; type: biochemical; settings: alkaline phosphatase (ALP), isolated enzyme; substrate 0.1 wt %, ALP 0.1 U/mL, 37° C.; read-out: t1/2 of ALP catalyzed dephosphorylation (converted)
Experimental: After obtaining all the precursors in Example 1, their behaviors were evaluated for EISA in vitro by using TEM and static light scattering (SLS) to examine the nanostructures formed before and after the addition of ALP into the solutions of the precursors. […] As a contrast, D-1P (50 μM) forms slightly more regular fibrous structures with diameter of 8±2 nm, which then interact with each other to form dense 2D/3D networks. […] After 24 h, the percentages of enzymatic dephosphorylation of D-1P and L-1P are about 90% and 80%, respectively. […] After being formed by dephosphorylation, L-1 and D-1 form different nanostructures. […] Similar to L-1, D-1 forms aggregated hollow colloids with a larger mean diameter (106±2 nm) and slightly thicker layers (thickness of 6±2 nm). L-2P or D-2P (50 μM) forms amorphous aggregates after dissolving in PBS buffer (pH=7.4) (FIG. 5). While the addition of ALP converts L-2P to L-2 to form uniform nanofibers with diameter of 9±2 nm, the enzymatic conversion of D-2P to D-2 results in nanoscale aggregates with diameter of 16±2 nm. […] As a charged, steric-hindered motif being connected to the peptide backbone via a relatively flexible linker, TPP disrupts intermolecular packing to disfavor the formation of long nanofibers, but it promotes interparticle interaction to favor polymorphic aggregates before and after enzymatic dephosphorylation. […]

Saos2 cells = experiment: MTT cell viability assay, Saos2; type: cell-based, human; settings: for IC50 against Saos2 cells / IC50: unstimulated Saos2; for IC50: read-out: IC50 against Saos2 cells; for cytotoxicity to Saos2 cells: formed from the precursor by exogenous ALP, concentrations up to 200 μM; for cytotoxicity against Saos2 cell: even at 500 μM
Experimental: (§1) Saos2, HeLa, HepG2, T98G, MCF-7 and HS-5 cells were purchased from American-type Culture Collection (ATCC, USA). Saos2 cells were cultured in Macyo's 5A medium supplemented with 15% v/v fetal bovine serum, 100 U/mL penicillin and 100 μg/mL streptomycin. HeLa, HepG2, T98G, MCF-7 cells were cultured in MEM Medium supplemented with 10% v/v fetal bovine serum, HS-5 cells were cultured in Dulbecco's Modified Eagle's medium (DMEM) supplemented with 10% v fetal bovine serum (FBS), 100 U/mL penicillin and 100 μg/mL streptomycin. All cells were cultured at 37° C. in a humidified atmosphere of 5% CO2.
(§2) For the MTT Assay, all cells were seeded in a 96-well plate with the density of 1*10^4 cells per-well (total medium volume of 100 μL). 24 hours post seeding, the solutions with a serial of concentrations (5 concentrations) of different precursors were added to each well. Cells without the treatment of the precursors were used as the control. At designated time (24/48/72 hours), 10 μL MTT solution (5 mg/mL) was added to each well and incubated at 37° C. for another 4 h, and then 100 μL of SDS-HCl solution was added to stop the reduction reaction and dissolve the purple formazan. The absorbance of each well at 595 nm was measured by a multimode microplate reader. The cytotoxicity assay was performed three times and the average value of the three measurements was taken.
To investigate the cellular response to all the precursors, an MTT (3-(4,5-dimethylthiazol-2-yl)-2,5-diphenyl tetrazolium bromide) assay (Gerlier et al., J. Immunol. Methods 94:57 (1986), which is hereby incorporated by reference in its entirety) was first used to examine the viability of human osteosarcoma cells (Saos2, which expresses high level ALP (Farley et al., Metabolism 40:664 (1991), which is hereby incorporated by reference in its entirety)) cultured with the precursors. As a control, the viability of normal human bone marrow stromal cells (HS5) that express low level of ALP on cell surface was also examined (Zhou et al., Chem 1:246 (2016), which is hereby incorporated by reference in its entirety). […] In the presence of exogenous ALP, L-1P (or D-1P) turns into L-1 (or D-1), which is innocuous to Saos2 cells at the concentrations up to 200 μM. […] To investigate the retention of L-1 (or D-1) in the Saos2 cells, the cells were incubated with L-1P (D-1P, 50 μM) for different times. […] On the contrary, the concentration of D-1 decreases little after 6 h incubation. Moreover, the intracellular concentration of D-1 is 3.5 fold of that of L-1 at 6 h incubation, but the ratio increases to 10 fold at 24 h incubation (FIG. 8B).
Three kinds of established ALP inhibitors were used: L-phenylalanine (L-Phe) (Borgers, M. J., Histochem. Cytochem. 21:812 (1973), which is hereby incorporated by reference in its entirety), an efficient uncompetitive inhibitor of placental alkaline phosphatase (PLAP) levamisole, a well-known uncompetitive inhibitor of tissue-nonspecific alkaline phosphatase (TNAP) (Borgers, M. J., Histochem. Cytochem. 21:812 (1973), which is hereby incorporated by reference in its entirety) and CinnGEL 2Me (Zhu et al., Cancer Res. 67:10129 (2007), which is hereby incorporated by reference in its entirety), an inhibitor of protein tyrosine phosphatase (PTP1B) that localizes at the cytoplasmic face of the endoplasmic reticulum. […] Moreover, the PTP1B inhibitor (i.e., CinnGEL 2Me) is unable to rescue the cells, supporting the mechanism in FIG. 1 that EISA on the cell surface is the key processes for converting L-1P and D-1P to L-1 and D-1, respectively. To further confirm the role of ALPs on cell surface, the precursors were incubated together with ALP, which serves as an exogenous enzyme. The addition of ALP almost eliminates the cytotoxicity of the precursors. […]

HS5 cells = experiment: MTT cell viability assay, HS5; type: cell-based, human; settings: 100 μM
Experimental: as §1
as §2, with “taken. […]” for “taken.”

selected Saos2 cell line = experiment: MTT assay on selected Saos2 cells after five weeks stimulation; type: cell-based, human
Experimental: as §2
Based on the above mechanism of cell death showing that L-1P (or D-1P) activates multiple death signaling pathways, it is believed that cancer cells unlikely would be able to evolve resistance toward this multiple targeting strategy. […] Such a plasticity should minimize the path to drug resistance. […]

[1] = system: T1, D-1P (NBD-βA-FFpYK, D enantiomer, with TPP on the ε-amino group of lysine)
T1 sequence: XFFXK

[2] = system: T2, D-2P (NBD-βA-FFpYK, D enantiomer, with acetyl on the ε-amine of lysine)
T2 sequence: XFFXK

[3] = system: T3, L-1P (NBD-βA-FFpYK, L enantiomer, with TPP on the ε-amino group of lysine)
T3 sequence: XFFXK

[4] = system: T4, L-2P (NBD-βA-FFpYK, L enantiomer, with acetyl on the ε-amine of lysine)
T4 sequence: XFFXK

[5] = 100 μM, 48 h, with levamisole (1 mM)
[6] = 100 μM, 48 h, without inhibitor
[7] = 200 μM, 48 h, with levamisole (1 mM)
[8] = 200 μM, 48 h, without inhibitor
[9] = co-incubated with the targeting motif TPP (3), 48 h

Q: `O=C(CCC[P+](c1ccccc1)(c1ccccc1)c1ccccc1)NCCCC[C@@H](NC(=O)[C@@H](Cc1ccc(OP(=O)(O)O)cc1)NC(=O)[C@@H](Cc1ccccc1)NC(=O)[C@@H](Cc1ccccc1)NC(=O)CCNc1ccc([N+](=O)[O-])c2nonc12)C(=O)O` [D-1P] ({NBD-βAla}-[dF][dF][d(pY)][dK](X1)-OH) was tested. Which half-life at 0.1 wt % (ALP) did it give?
A: 33 min

Q: And the “cell viability of Saos2 cells” value (Saos2 cells; [5])?
A: 66.0%

Q: What about the “cell viability of Saos2 cells” value (Saos2 cells; [6]) of the same compound?
A: 11.5%

Q: And the “cell viability of Saos2 cells” value (Saos2 cells; [7])?
A: 53.3%

Q: And the “cell viability of Saos2 cells” value (Saos2 cells; [8])?
A: 1.8%

Q: What about the “IC50 against Saos2 cells” value (Saos2 cells; 48 h) of the same compound?
A: 57.4 ± 2.5 µg/mL

Q: And the IC50 (Saos2 cells; 48 h)?
A: 46 ± 2 µM

Q: And the “cytotoxicity against HS5 cells” value (HS5 cells)?
A: almost innocuous

Q: And the IC50 (selected Saos2 cell line; cells selected by five weeks stimulation of D-1P (10 to 50 μM), read-out: IC50 against Saos2 cells after five weeks stimulation)?
A: 35.2 µM

Q: `O=C(CCC[P+](c1ccccc1)(c1ccccc1)c1ccccc1)NCCCC[C@@H](NC(=O)[C@@H](Cc1ccc(O)cc1)NC(=O)[C@@H](Cc1ccccc1)NC(=O)[C@@H](Cc1ccccc1)NC(=O)CCNc1ccc([N+](=O)[O-])c2nonc12)C(=O)O` [D-1] ({NBD-βAla}-[dF][dF][dY][dK](X1)-OH) was tested. Which “cytotoxicity to Saos2 cells” value (Saos2 cells) did it give?
A: innocuous

Q: How did the “cytotoxicity against Saos2 cell” value (Saos2 cells; by itself, 48 h) turn out when `CC(=O)NCCCC[C@@H](NC(=O)[C@@H](Cc1ccc(OP(=O)(O)O)cc1)NC(=O)[C@@H](Cc1ccccc1)NC(=O)[C@@H](Cc1ccccc1)NC(=O)CCNc1ccc([N+](=O)[O-])c2nonc12)C(=O)O` [D-2P] ({NBD-βAla}-[dF][dF][d(pY)][dK](Ac)-OH) was run?
A: hardly exhibits cytotoxicity

Q: What about the “cytotoxicity against Saos2 cell” value (Saos2 cells; [9]) of the same compound?
A: hardly exhibits cytotoxicity

Q: Which results are given for `O=C(CCC[P+](c1ccccc1)(c1ccccc1)c1ccccc1)NCCCC[C@H](NC(=O)[C@H](Cc1ccc(OP(=O)(O)O)cc1)NC(=O)[C@H](Cc1ccccc1)NC(=O)[C@H](Cc1ccccc1)NC(=O)CCNc1ccc([N+](=O)[O-])c2nonc12)C(=O)O` [L-1P] ({NBD-βAla}-FF[pY]K(X1)-OH)?
A: half-life at 0.1 wt % (ALP): 68.4 min; cell viability of unstimulated Saos2 (Saos2 cells; 50 μM, 48 h): 71.7%; cell viability of Saos2 cells (Saos2 cells; [5]): 65.3%; cell viability of Saos2 cells (Saos2 cells; [6]): 21.6%; cell viability of Saos2 cells (Saos2 cells; [7]): 50.5%; cell viability of Saos2 cells (Saos2 cells; [8]): 2.1%; IC50 against Saos2 cells (Saos2 cells; 48 h): 76.1 ± 2.5 µg/mL; IC50 (Saos2 cells; 48 h): 61 ± 2 µM; cytotoxicity against HS5 cells (HS5 cells): almost innocuous; cell viability of the selected cells (selected Saos2 cell line; 50 μM, 48 h, after five weeks stimulation): 20.5%

Q: For `O=C(CCC[P+](c1ccccc1)(c1ccccc1)c1ccccc1)NCCCC[C@H](NC(=O)[C@H](Cc1ccc(O)cc1)NC(=O)[C@H](Cc1ccccc1)NC(=O)[C@H](Cc1ccccc1)NC(=O)CCNc1ccc([N+](=O)[O-])c2nonc12)C(=O)O` [L-1] ({NBD-βAla}-FFYK(X1)-OH), which “cytotoxicity to Saos2 cells” value (Saos2 cells) is on record?
A: innocuous

Q: How did the “cytotoxicity against Saos2 cell” value (Saos2 cells; by itself, 48 h) turn out when `CC(=O)NCCCC[C@H](NC(=O)[C@H](Cc1ccc(OP(=O)(O)O)cc1)NC(=O)[C@H](Cc1ccccc1)NC(=O)[C@H](Cc1ccccc1)NC(=O)CCNc1ccc([N+](=O)[O-])c2nonc12)C(=O)O` [L-2P] ({NBD-βAla}-FF[pY]K(Ac)-OH) was run?
A: hardly exhibits cytotoxicity

Q: And the “cytotoxicity against Saos2 cell” value (Saos2 cells; [9])?
A: hardly exhibits cytotoxicity

Q: With `COC(=O)C[C@H](NC(=O)[C@H](C)NC(=O)[C@@H](NC(=O)OCc1ccccc1)C(C)C)C(=O)CF` [zVAD-fmk, reference compound] (Cbz-Val-Ala-Asp(OMe)-CH2F) as the compound, how does the “toxicity on Saos2 cells” value (Saos2 cells; 45 μM, by itself) read?
A: no toxicity

Q: What does the source list for alkaline phosphatase?
A: percentage of enzymatic dephosphorylation after 24 h [1]: the percentages of enzymatic dephosphorylation of D-1P and L-1P are about 90% and 80%, respectively; t1/2 of ALP catalyzed dephosphorylation (substrate 0.1 wt %, ALP 0.1 U/mL) [1]: The t1/2 was determined to be 0.55 h and 1.14 h for D-1P and L-1P, respectively; enzymatic conversion (dephosphorylation) seen by TEM [2]: the enzymatic conversion of D-2P to D-2 results in nanoscale aggregates; percentage of enzymatic dephosphorylation after 24 h [3]: the percentages of enzymatic dephosphorylation of D-1P and L-1P are about 90% and 80%, respectively; t1/2 of ALP catalyzed dephosphorylation (substrate 0.1 wt %, ALP 0.1 U/mL) [3]: The t1/2 was determined to be 0.55 h and 1.14 h for D-1P and L-1P, respectively; enzymatic conversion (dephosphorylation) seen by TEM [4]: the addition of ALP converts L-2P to L-2 to form uniform nanofibers
